Data as given in US7651978B2, “Selective herbicides based on a substituted phenylsulphonylaminocarbonyl-triazolinone” (Arysta LifeScience North America, LLC, priority 1998, dated 2010).
Structures can show the parent of a compound that is named as a salt.

Legend:
Assay in all cases: Pre-emergence test/greenhouse
Format in all cases: in vivo
Alopecurus = conditions: 504 h, after three weeks, read-out: degree of damage, Alopecurus
Experimental: (§1) Pre-Emergence Test/Greenhouse Solvent: 5 parts by weight of acetone Emulsifier: 1 part by weight of alkylaryl polyglycol ether To produce a suitable preparation of active compound, 1 part by weight of active compound is mixed with the stated amount of solvent, the stated amount of emulsifier is added and the concentrate is diluted with water to the desired concentration. Seeds of the test plants are sown in normal soil. After about 24 hours, the soil is sprayed with the preparation of active compound such that the particular amount of active compound desired is applied per unit area. The concentration of the spray liquor is chosen so that the particular amount of active compound desired is applied in 500 ml of water per hectare. After three weeks, the degree of damage to the plants is assessed in % damage in comparison to the development of the untreated control. The figures denote: • 0%=no effect (like untreated control) • 100%=total destruction

Avena = conditions: 504 h, after three weeks, read-out: degree of damage, Avena
Experimental: as §1

Bromus = conditions: 30 g of ai./ha, after three weeks
Experimental: as §1

Digitaria = conditions: 30 g of ai./ha, after three weeks
Experimental: as §1

Echinochloa = conditions: 30 g of ai./ha, after three weeks
Experimental: as §1

Matricaria = conditions: 30 g of ai./ha, after three weeks
Experimental: as §1

Polygonum = conditions: 30 g of ai./ha, after three weeks
Experimental: as §1

Setaria = conditions: after three weeks
Experimental: as §1

Wheat = conditions: in vivo
Experimental: as §1

COc1nn(C(=O)NS(=O)(=O)c2ccccc2OC(F)(F)F)c(=O)n1C [(I)-Na-salt, 2-(2-trifluoromethoxy-phenylsulphonylaminocarbonyl)-4-methyl-5-methoxy-2,4-dihydro-3H-1,2,4-triazol-3-one]
pest or weed control at 30 g/ha (Alopecurus; 30 g of ai./ha): 100% | pest or weed control at 250 g/ha (Alopecurus; 250 g ai./ha): 100% | pest or weed control at 30 g/ha (Avena; 30 g of ai./ha): 95% | pest or weed control at 250 g/ha (Avena; 250 g ai./ha): 99% | degree of damage, Bromus (Bromus): 100% | degree of damage, Digitaria (Digitaria): 100% | degree of damage, Echinochloa (Echinochloa): 80% | degree of damage, Matricaria (Matricaria): 100% | degree of damage, Polygonum (Polygonum): 90% | degree of damage, Setaria (Setaria; 30 g of ai./ha): 100% | degree of damage, Setaria (Setaria; 250 g ai./ha): 99% | compatibility with crop plants (wheat), in words (Wheat): very good compatibility | degree of damage, Wheat (Wheat; wheat, 3 weeks): 0%
